Where two headings read alike, the source gives them in different places.

Experiment [1] concerns the target T1, Brd2(BD2) (Homo sapiens, UniProt P25440).
T1 construct: GST tagged bromodomain proteins were purchased from BPS Bioscience; purchased BPS Bioscience
Description: HTRF BET selectivity profile, Brd2(BD2). It counts as binding. As to conditions: read-out: Brd2(BD2) IC50.

Experiment [2] concerns Molm14 cells. The experiment can be described thus: Cell Titer-Glo cell viability assay, Molm14. In kind it is cell-based. The following applies: Homo sapiens, MOLM-14, 72 h, mean of three experiments, NA = IC50 > maximal concentration used. The protocol:
The human leukemia cell line Jurkat (ATCC® TIB-152) and Molm14 was maintained in RPMI-1640 medium or MEMα, respectively and supplemented both with 10% FBS at 37° C. and 5% CO2.
In antiproliferative assays, compounds were assayed for their growth inhibiting activity towards the described cancer cell lines using the Cell Titer-Glo Luminescent Cell Viability Assay as described by the manufacturer (Promega Corporation). Briefly, 10.000 cells were plated onto 96 well-plates (white with clear bottom (3610, Corning Costar)) in 90 μL media per well immediately before assay. 10 μL of compounds were added at different concentrations (ranging from 50 μM to 6 nM) to each well and cell cultures were incubated 37° C. during 72 h. Vehicle (DMSO) was used as negative control, JQ1 (a pan-BET inhibitor) was used as positive control and all compounds were tested in constant percentage of DMSO (1%). After addition of 50 μL Cell Titer-GLO, shaking 2 minutes and incubating at room temperature 10 minutes, the Luminescence was measured using a Centro luminometer LB960 (Berthold). Dose-response curves were generated and effective dose 50 values (EC50) were calculated using non-linear regression analysis (Graph Pad Prism).
In general terms: In ATP-based viability assays light output follows the ATP content of the culture.

Experiment [3] has as its target BRD4(BD1) (Homo sapiens, UniProt O60885). Description: HTRF assay, BRD4(BD1)/histone peptide interaction. In kind it is binding. Also noted: made in house. The following applies: for IC50: HTRF. A general note: Time-resolved FRET reads energy transfer from a long-lived donor to a nearby acceptor.
Experiment [4] deals with T2, Brdt(BD1) (Homo sapiens, UniProt Q58F21).
T2 construct: GST tagged bromodomain proteins were purchased from BPS Bioscience; purchased BPS Bioscience
The experiment can be described thus: HTRF BET selectivity profile, Brdt(BD1). It counts as binding. In outline: (§1)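 HTRF peptide-displacement assay with GST-tagged bromodomains and histone peptide, 0.5% final DMSO, incubated 3 h, 6 h or overnight at room temperature or 4 °C depending on bromodomain. 665/620 nm ratio read; inhibition scaled between DMSO and no-peptide controls, IC50 in triplicate.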

Experiment [5] concerns the target T3, ATAD2 (Homo sapiens, UniProt Q6PL18).
T3 construct: GST tagged bromodomain proteins were purchased from BPS Bioscience; purchased BPS Bioscience
T3 sequence (Q6PL18 980-1092 limits assumed): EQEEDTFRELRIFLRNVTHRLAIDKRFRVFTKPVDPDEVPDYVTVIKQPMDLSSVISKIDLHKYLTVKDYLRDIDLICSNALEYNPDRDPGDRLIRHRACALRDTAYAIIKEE
The experiment can be described thus: HTRF selectivity profile, ATAD2 (non-BET bromodomain control). It counts as binding. As for the experimental part:
HTRF assays were performed in white 384 Well Small Volume™ HiBase Polystyrene Microplates (Greiner) with a total working volume of 20 μL. Compounds were dispensed, with 100 nL per well (0.5% final DMSO), from a concentration stock of 10 mM in 100% DMSO and with serial DMSO dilutions, using an Echo® 550 robot from the Access Labcyte platform (Labcyte) and based on the transfer of liquid by acoustic wave. Then, 19.5 μL of buffer is added, using a Multidrop Combi (Thermo Fisher Scientific). […] HTRF signals were measured, after a final incubation (3 h or 6 h or overnight at room temperature or 4° C., according to the bromodomain), using a PHERAstar FS (BMG Labtech) with an excitation filter at 337 nm and fluorescence wavelength measurement at 620 and 665 nm, an integration delay of 60 μs and an integration time of 500 μs. Results were analyzed with a two-wavelengths signal ratio: [intensity (665 nm)/intensity (620 nm)]*104.
Percentage of inhibition was calculated using the following equation: % inhibition=[(compound signal)−(min signal)]/[(max signal)−(min signal)]*100, where ‘max signal’ is the signal ratio with the compound vehicle alone (DMSO) and ‘min signal’ the signal ratio without peptide. […]

Experiment [6] addresses Brd3(BD1) (Homo sapiens, UniProt Q15059). The experiment can be described thus: HTRF BET selectivity profile, Brd3(BD1). In kind it is binding. On the set-up: GST tagged bromodomain proteins were purchased from BPS Bioscience; purchased BPS Bioscience.
For experiment [7], the target named is T4, Brd3(BD2) (Homo sapiens, UniProt Q15059).
T4 construct: GST tagged bromodomain proteins were purchased from BPS Bioscience; purchased BPS Bioscience
Description: HTRF BET selectivity profile, Brd3(BD2). In kind it is binding. In a few lines: as §1

Experiment [8] has as its target T5, Brd2(BD1) (Homo sapiens, UniProt P25440).
T5 construct: GST tagged bromodomain proteins were purchased from BPS Bioscience; purchased BPS Bioscience
The experiment can be described thus: HTRF BET selectivity profile, Brd2(BD1). It counts as binding.

The subject of experiment [9] is Jurkat cells. Description: Cell Titer-Glo cell viability assay, Jurkat. The following applies: Homo sapiens, 72 h, mean of three experiments, NA = IC50 > maximal concentration used. In kind it is cell-based. In a few lines:
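Jurkat was grown in RPMI-1640 and Molm14 in MEMα, both with 10% FBS. Viability was read by CellTiter-Glo luminescence, and EC50 was obtained by non-linear regression of dose-response curves.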

In experiment [10] the target is T6, Brd4(BD2) (Homo sapiens, UniProt O60885).
T6 construct: GST tagged bromodomain proteins were purchased from BPS Bioscience; purchased BPS Bioscience
The experiment can be described thus: HTRF BET selectivity profile, Brd4(BD2). In kind it is binding. In outline: as §1

Experiment [11] deals with BD2 domain of BRD2 and BRD3. As to conditions: cited from earlier work.
Experiment [12] relates to c-Myc. The following applies: known inhibitors, background statement; cited from earlier work.

T5 sequence (P25440 74-180 limits assumed): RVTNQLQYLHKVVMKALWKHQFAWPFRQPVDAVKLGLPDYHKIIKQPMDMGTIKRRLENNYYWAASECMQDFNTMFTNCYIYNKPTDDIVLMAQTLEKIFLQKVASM
Sequence of Brd3(BD1) (Q15059 34-140 limits assumed): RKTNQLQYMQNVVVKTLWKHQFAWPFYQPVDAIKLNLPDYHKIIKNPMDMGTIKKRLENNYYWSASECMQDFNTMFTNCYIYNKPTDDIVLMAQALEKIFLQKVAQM
T4 sequence (Q15059 306-415 limits assumed): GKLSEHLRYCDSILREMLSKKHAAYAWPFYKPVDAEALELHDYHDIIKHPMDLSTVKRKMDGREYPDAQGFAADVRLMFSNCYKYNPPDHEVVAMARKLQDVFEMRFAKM
T1 sequence (P25440 344-453 limits assumed): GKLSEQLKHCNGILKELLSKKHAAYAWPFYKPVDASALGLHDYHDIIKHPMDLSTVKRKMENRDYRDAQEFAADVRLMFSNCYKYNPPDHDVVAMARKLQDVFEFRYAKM

One may read the IC50 as the concentration that gives 50% inhibition. On to `CCn1cnc2c1c(=O)[nH]c(=O)n2Cc1ccc(CNS(=O)(=O)c2ccc(-c3ccccc3)cc2)cc1` [Compound 29b], for which the IC50 in experiment [1] was 16 µM; in [2], 10.6 µM; in experiment [3] (mean of three experiments, NA = IC50 > 50 μM, read-out: Brd4(8D1) IC50), 0.45 µM; in [3] (triplicates, NA = IC50 > maximal concentration of compound used), 0.45 µM; in experiment [4], 19.7 µM; in experiment [5] it was 24.6 µM. For the same compound, the IC50 in experiment [6] stood at 0.897 µM; in experiment [7], 13.5 µM; in experiment [8] (read-out: Brd2(BD1) IC50) it was 3.31 µM; in experiment [9] it was 26.5 µM; in experiment [10] it was 17.7 µM. The “Ratio 4-1 vs 4-2” value in experiment [3] (selectivity Brd4(BD1) vs Brd4(BD2), HTRF IC50) was determined as 39. In addition, in [6] (selectivity Brd3(BD1) vs Brd3(BD2), HTRF IC50), the “Ratio 3-1 vs 3-2” value is reported as 15. Besides, the “Ratio 2-1 vs 2-2” value in experiment [8] (selectivity Brd2(BD1) vs Brd2(BD2), HTRF IC50) worked out at 5.
For the compound `COc1cc(OC)c2c(=O)[nH]c(-c3cc(C)c(OCCO)c(C)c3)nc2c1` [RVX-208, 2-[4-(2-hydroxyethoxy)-3,5-dimethylphenyl]-5,7-dimethoxy-4(3H)-quinazolinone], in experiment [11], the bromodomain binding preference result is “binds preferentially to the BD2 domain of BRD2 and BRD3”. Also, the “effect on c-Myc expression” value in experiment [12] is on record as “no significant effect”.

Values taken from US11180510B2, “Xanthine derivatives and uses thereof as inhibitors of bromodomains of BET proteins” (Centre national de la recherche scientifique, priority 2017, dated 2021).
